# Experimental data from patent US12226396B2, “Gluconic acid derivatives for use in the treatment and/or prevention of microbial infections” (GEDEA BIOTECH AB, priority 2017, dated 2025).
# How the values were obtained:
# [1] = system: Lactobacillus iners CCUG 44025; test: MIC microdilution test; assay type: cell-based; details: CAMHB, anaerobic conditions, 120 hours
# Experimental: Gardnerella vaginalis, Lactobacillus iners, and Lactobacillus crispatus were recovered by CCUG (Culture Collection of University of Gothenburg). Subculture plates were made for G. vaginalis on Chocolate-GL plates and Lactobacillus spp. on M.R.S. agar plates at 5% CO2, 36° C. The inoculums were prepared from the subculture plates. Colonies were inoculated to culture tubes with 5 ml test medium and vortexed 2 min with about 10 glass beads a 3 mm in diameter. Colonies were taken until the turbidity of the solution was OD475 of 0.4-0.5. The bacterial solutions were checked in light microscopy at ×40 with phase contrast to make sure that the cells were dispersed. Each bacterial suspension was diluted in its test medium, 1:100, to equal 1-3×10^6 CFU/ml. The microbial solutions were stored at 20° C. during the preparation of the inoculums
# The test substance solution was prepared aseptically at 1 g/ml in sterile H2O. The first row of wells was filled with 100 μl substance and then 2 fold dilutions were done vertically in 8 steps.
# The pH was also measured for all dilutions, n=1, pH=6.8-7.1
# C. albicans [2] = test: Mature biofilm cell survival, serial dilution plating on YPD; assay type: cell-based, Candida albicans
# Experimental: The plated cells were incubated for 24 h at 37° C. and visually analyzed. The cells from the mature biofilm treated with water were used as a control. […] At the concentrations of 0.2 and 0.5 g/ml after 5 h of incubation the cell viability was decreased by about 100 times for both C. albicans and C. glabrata.
# [3] = system: Streptococcus pyogenes CCUG 47803/ATCC 700294; test: MIC microdilution test; assay type: cell-based; details: CCUG 47803, 5% CO2
# Experimental: (§1) The test substance solution was prepared aseptically at 1 g/ml in sterile H2O. […] After 48 and 72 hours of incubation, the OD was measured and ocular assessments were done. […] All strains were recovered from microbanks and streak and subculture plates were made. The aerobes on TSA plates, the fastidious aerobes on horse blood plates and the anaerobe on FAA plates. […] At the time of testing, loopfuls of colonies selected from 18- to 24-hour agar plates for the aerobes and fastidious aerobes were suspended in 5 ml saline in 10 ml tubes containing 10 glass beads a 3 mm in diameter. […] The cell suspensions were then vortexed vigorously for 1 minute to obtain a turbid suspension. Each suspension of the aerobes and fastidious aerobes was adjusted to equal OD 0.28 at 475 nm using a spectrophotometer, which correlates approximately to 1-3×10^8 CFU/ml with most species. For the anaerobe, the OD measurement turned out to be difficult due to the use of blood in the culture medium. […] The aerobes and fastidious aerobes were further diluted in saline 10 times so that the inoculum concentration equaled to […]. The anaerobe was not diluted but used directly as is. The different aerobic and fastidious aerobic bacterial suspensions were transferred to respective wells of a 96 well plate. A. baumannii, E. coli, and P. aeruginosa were placed in one row, the Staphylococci spp. were placed in a second row, and the fastidious aerobes were placed in a third row of the plate. The anaerobe was transferred from a 25 ml multichannel pipette reservoir. The Microdilution Preparations and the MIC tests were performed as in example 13.
# [4] = system: Escherichia coli CCUG 3274/ATCC 10536; test: MIC microdilution test; assay type: cell-based; details: CCUG 3274, aerobic
# Experimental: as §1
# [5] = system: Acetinobacter baumanii CCUG 57035; test: MIC microdilution test; assay type: cell-based; details: CCUG 57035, aerobic
# Experimental: as §1
# [6] = system: Pseudomonas aeruginosa (PAO1) CCUG 56489/ATCC 15692; test: MIC microdilution test; assay type: cell-based; details: CCUG 56489, aerobic
# Experimental: as §1
# [7] = system: Beta-Hemolytic Streptococci Groups C Streptococcus dysgalactiae ss equisimilis CCUG 4211; test: MIC microdilution test; assay type: cell-based; details: CCUG 4211, 5% CO2
# Experimental: as §1
# [8] = system: Staphylococcus epidermidis CCUG 23118; test: MIC microdilution test; assay type: cell-based; details: CCUG 23118, aerobic
# Experimental: as §1
# [9] = system: Porphyromonas gingivalis CCUG 25893/ATCC 33277; test: MIC microdilution test; assay type: cell-based; details: CCUG 25893, strict anaerobic conditions
# Experimental: as §1
# [10] = system: Streptococcus agalactiae CCUG 29376; test: MIC microdilution test; assay type: cell-based; details: CCUG 29376, 5% CO2
# Experimental: as §1
# [11] = system: Staphylococcus aureus CCUG 15915/ATCC 29213; test: MIC microdilution test; assay type: cell-based; details: CCUG 15915, aerobic
# Experimental: as §1
# [12] = system: Beta-Hemolytic Streptococci Groups G Streptococcus dysgalactiae ss equisimilis CCUG 7975; test: MIC microdilution test; assay type: cell-based; details: CCUG7975, 5% CO2
# Experimental: as §1
# Escherichia coli K12 = test: E. coli biofilm study in M9 medium (crystal violet); assay type: cell-based
# Experimental: The bacterial strain Escherichia coli K12 was used for the biofilm study. This strain was maintained on LB medium at 37° C. The biofilm was studied in synthetic medium M9 (×1 M9 minimal salts (Sigma M6030), 2 mM MgSO4, 0.1 mM CaCl2, and 0.2% glucose), which contained either phosphate buffer, citric acid, lactic acid, gluconic acid or glucono-O-lactone to obtain media with different pH (2.6-6.6).
# The overnight culture of E. coli K12 (OD600˜5.0) was washed with sterile water and inoculated to the final concentration 0.2 OD/ml of M9 medium with different pH of different compounds. The biofilm development was studied in 96-well flat-bottom polystyrene microtiter plates (Sigma Aldrich, Corning® Costar® culture plates, CLS3596-50EA). The biofilm was stained with crystal violet.
# C. albicans [13] = test: Microfluidics study of biofilm development (cell morphology); assay type: cell-based, Candida albicans; details: 1 h hydrolysate of 2.5 g pellet diluted 50 times, after 5 h
# Experimental: To monitor the C. albicans cell morphology we studied the biofilm development also using microscopy and microfluidics. After the yeast cells were inoculated, hyphae started to form within first hour of incubation in the biofilm medium (YNB supplemented with 100 mM proline and 0.2% glucose, pH7.0). […] A sample was taken after 1 h and diluted 50 times with biofilm medium and added to C. albicans.
# C. albicans [14] = test: Viability of mature biofilm, XTT assay; assay type: cell-based, Candida albicans; details: 48 h of incubation with GDA
# Experimental: XXT is a colorimetric assay for quantification of cellular viability, and cytotoxicity. The assay is based on the cleavage of the tetrazolium salt XTT, a conversion that only occurs in viable cells. […] Then the cells were washed 2 times with PBS, after which the XTT reaction mixture was added. After 30 min the optical density measured at 485 nm.
structure (smiles),measurement,setting,value
"O=C1O[C@H](CO)[C@@H](O)[C@H](O)[C@H]1O [GDA, glucono-δ-lactone]",MIC (g/ml),[1],0.0078 g/ml
same,decrease of cell viability,"C. albicans [2]; 0.2 and 0.5 g/ml, 5 h of incubation, 37° C",about 100 times
same,decrease of cell viability,"C. albicans [2]; 0.5 g/ml, 73 h of incubation",about 1000 times
same,MIC (g/ml),[3],0.0031 g/ml
same,MIC (g/ml),[4],0.0063 g/ml
same,MIC (g/ml),[5],0.0031 g/ml
same,MIC (g/ml),[6],0.0031 g/ml
same,MIC (g/ml),[7],0.0016 g/ml
same,MIC (g/ml),[8],0.0031 g/ml
same,MIC (g/ml),[9],0.0031 g/ml
same,MIC (g/ml),[10],0.0031 g/ml
same,MIC (g/ml),[11],0.0063 g/ml
same,MIC (g/ml),[12],0.0031 g/ml
same,effect on growth (biomass),"Escherichia coli K12; M9 medium, 24-48 hours",inhibiting effect on the growth
same,decrease of biofilm formation,"Escherichia coli K12; pH 2.6, 24 h",14.2 times
same,decrease of biofilm formation,"Escherichia coli K12; pH 2.6, 48 h",30 times
same,cell morphology,C. albicans [13],most treated cells were planctonic
same,decrease in viability of mature biofilm (XTT),C. albicans [14],clearly seen
